According to ChEMBL document CHEMBL5465560, “Selectivity Literature for EUbOPEN Chemogenomic Library” (2024):

Key:
[1] = molecular target: T1, Cyclin-dependent kinase-like 5 (Homo sapiens) (UniProt O76039); experiment: Selectivity interaction (Kinase panel (Z-LYTE Assay)) EUB0001632a CDKL5; settings: at 10 µM
T1 sequence (whole entry): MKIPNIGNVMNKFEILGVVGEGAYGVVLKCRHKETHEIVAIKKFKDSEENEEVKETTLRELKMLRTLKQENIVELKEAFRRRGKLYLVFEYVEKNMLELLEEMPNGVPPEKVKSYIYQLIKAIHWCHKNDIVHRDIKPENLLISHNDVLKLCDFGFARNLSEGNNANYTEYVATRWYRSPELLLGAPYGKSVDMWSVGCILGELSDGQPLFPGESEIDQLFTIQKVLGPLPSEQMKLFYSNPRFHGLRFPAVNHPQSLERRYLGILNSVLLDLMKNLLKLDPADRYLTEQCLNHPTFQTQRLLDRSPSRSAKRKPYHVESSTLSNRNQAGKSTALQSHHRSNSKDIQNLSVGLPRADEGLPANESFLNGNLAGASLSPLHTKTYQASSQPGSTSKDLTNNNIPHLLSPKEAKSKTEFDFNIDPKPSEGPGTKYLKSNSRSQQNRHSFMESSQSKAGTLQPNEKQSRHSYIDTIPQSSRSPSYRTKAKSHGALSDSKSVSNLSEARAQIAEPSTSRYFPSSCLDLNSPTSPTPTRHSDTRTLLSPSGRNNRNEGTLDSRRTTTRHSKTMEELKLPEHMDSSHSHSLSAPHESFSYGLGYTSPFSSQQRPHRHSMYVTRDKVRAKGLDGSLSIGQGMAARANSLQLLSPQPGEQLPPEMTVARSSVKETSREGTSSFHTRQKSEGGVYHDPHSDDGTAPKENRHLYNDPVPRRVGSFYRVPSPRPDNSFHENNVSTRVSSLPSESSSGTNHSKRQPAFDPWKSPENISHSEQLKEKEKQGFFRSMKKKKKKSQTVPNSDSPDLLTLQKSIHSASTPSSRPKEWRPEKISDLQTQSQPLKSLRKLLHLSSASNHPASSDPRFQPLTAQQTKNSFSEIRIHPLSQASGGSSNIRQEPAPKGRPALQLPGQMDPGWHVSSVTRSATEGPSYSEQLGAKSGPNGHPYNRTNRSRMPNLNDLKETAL

[2] = system: Tyrosine-protein kinase ABL1 (Homo sapiens), P00519 [H396P]; experiment: Selectivity interaction (KinomeScan (DiscoverX)) EUB0001079a ABL1; settings: at 1 µM
[3] = molecular target: Serine/threonine-protein kinase 10 (Homo sapiens) (UniProt O94804); experiment: Selectivity interaction (KinomeScan (DiscoverX)) EUB0001079a STK10; settings: at 1 µM
Serine/threonine-protein kinase 10 (Homo sapiens), sequence (O94804 whole entry, looked up): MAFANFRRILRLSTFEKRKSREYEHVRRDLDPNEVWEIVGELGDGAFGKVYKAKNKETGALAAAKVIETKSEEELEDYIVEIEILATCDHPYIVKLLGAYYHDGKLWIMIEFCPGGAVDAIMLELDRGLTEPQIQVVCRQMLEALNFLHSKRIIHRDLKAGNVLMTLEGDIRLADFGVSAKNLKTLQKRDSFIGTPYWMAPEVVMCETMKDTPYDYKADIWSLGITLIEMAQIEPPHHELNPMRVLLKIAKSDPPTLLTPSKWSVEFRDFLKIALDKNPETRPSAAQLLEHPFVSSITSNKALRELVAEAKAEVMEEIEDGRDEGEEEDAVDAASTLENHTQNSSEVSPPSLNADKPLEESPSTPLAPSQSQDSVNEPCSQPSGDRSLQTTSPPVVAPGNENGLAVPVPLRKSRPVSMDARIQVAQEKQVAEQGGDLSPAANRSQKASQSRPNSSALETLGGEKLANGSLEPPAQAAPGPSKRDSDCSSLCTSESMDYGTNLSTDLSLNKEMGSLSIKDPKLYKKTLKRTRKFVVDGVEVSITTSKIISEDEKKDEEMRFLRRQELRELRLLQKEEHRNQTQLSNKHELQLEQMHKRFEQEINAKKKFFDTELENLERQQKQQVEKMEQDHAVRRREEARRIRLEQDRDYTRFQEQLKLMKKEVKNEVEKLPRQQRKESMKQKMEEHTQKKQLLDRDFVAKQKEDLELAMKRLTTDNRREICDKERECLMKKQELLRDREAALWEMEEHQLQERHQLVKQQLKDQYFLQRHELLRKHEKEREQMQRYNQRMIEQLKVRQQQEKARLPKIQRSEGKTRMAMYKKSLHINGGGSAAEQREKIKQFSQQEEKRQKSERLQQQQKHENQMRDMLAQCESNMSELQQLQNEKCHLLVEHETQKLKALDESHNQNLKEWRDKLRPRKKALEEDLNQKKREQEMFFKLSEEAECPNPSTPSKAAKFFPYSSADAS

[4] = molecular target: T2, Inhibitor of nuclear factor kappa-B kinase subunit epsilon (Homo sapiens) (UniProt Q14164); experiment: Selectivity interaction (KinomeScan (DiscoverX)) EUB0001079a IKBKE; settings: at 1 µM
T2 sequence (whole entry): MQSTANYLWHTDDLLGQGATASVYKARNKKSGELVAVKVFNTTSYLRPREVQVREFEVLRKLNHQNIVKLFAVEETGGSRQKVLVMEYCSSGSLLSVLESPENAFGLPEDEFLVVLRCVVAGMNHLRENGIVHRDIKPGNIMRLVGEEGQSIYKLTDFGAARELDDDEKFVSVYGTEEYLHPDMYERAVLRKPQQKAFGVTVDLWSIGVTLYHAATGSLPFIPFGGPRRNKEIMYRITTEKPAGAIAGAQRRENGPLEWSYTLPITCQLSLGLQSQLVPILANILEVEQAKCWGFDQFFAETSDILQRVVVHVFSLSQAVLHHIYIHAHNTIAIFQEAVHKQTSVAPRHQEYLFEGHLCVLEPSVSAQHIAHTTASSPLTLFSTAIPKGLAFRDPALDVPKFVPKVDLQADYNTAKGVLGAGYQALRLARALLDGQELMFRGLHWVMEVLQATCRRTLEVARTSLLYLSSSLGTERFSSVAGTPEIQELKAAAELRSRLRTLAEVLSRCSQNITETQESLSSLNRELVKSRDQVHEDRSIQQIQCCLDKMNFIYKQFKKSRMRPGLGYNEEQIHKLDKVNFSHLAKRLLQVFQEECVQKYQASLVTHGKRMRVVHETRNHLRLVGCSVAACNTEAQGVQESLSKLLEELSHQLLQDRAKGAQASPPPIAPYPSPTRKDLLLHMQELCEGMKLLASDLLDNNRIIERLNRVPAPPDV

[5] = molecular target: T3, Serine/threonine-protein kinase NLK (Homo sapiens) (UniProt Q9UBE8); experiment: Selectivity interaction (KinomeScan (DiscoverX)) EUB0000092b NLK; settings: at 10 µM
T3 sequence (whole entry): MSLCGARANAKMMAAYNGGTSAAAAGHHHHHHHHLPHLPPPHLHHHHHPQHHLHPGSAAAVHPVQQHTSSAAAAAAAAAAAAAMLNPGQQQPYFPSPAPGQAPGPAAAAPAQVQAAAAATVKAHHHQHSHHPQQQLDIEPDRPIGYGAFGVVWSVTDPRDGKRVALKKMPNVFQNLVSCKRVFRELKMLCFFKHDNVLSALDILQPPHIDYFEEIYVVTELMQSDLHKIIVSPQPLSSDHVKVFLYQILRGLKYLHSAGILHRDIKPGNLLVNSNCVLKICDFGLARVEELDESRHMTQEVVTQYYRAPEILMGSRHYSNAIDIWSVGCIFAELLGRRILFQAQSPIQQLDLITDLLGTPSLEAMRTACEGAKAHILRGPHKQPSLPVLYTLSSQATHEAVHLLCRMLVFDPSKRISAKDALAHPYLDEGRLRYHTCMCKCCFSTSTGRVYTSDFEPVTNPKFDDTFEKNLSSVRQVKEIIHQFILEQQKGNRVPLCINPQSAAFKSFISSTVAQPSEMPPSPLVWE

[6] = system: Tyrosine-protein kinase ABL1 (Homo sapiens), P00519 [M351T]; experiment: (§1) Selectivity interaction (KinomeScan (DiscoverX)) EUB0000618a ABL1; settings: at 10 µM
[7] = system: Tyrosine-protein kinase ABL1 (Homo sapiens), P00519 [F317I]; experiment: as §1; settings: at 10 µM
[8] = system: Tyrosine-protein kinase ABL1 (Homo sapiens), P00519 [Q252H]; experiment: as §1; settings: at 10 µM
[9] = system: Tyrosine-protein kinase ABL1 (Homo sapiens), P00519 [H396P]; experiment: as §1; settings: at 10 µM
[10] = system: Tyrosine-protein kinase ABL1 (Homo sapiens), P00519 [F317L]; experiment: as §1; settings: at 10 µM
[11] = system: Tyrosine-protein kinase ABL1 (Homo sapiens), P00519 [E255K]; experiment: as §1; settings: at 10 µM
[12] = system: Tyrosine-protein kinase ABL1 (Homo sapiens), P00519 [Y253F]; experiment: as §1; settings: at 10 µM
[13] = molecular target: Tyrosine-protein kinase ABL1 (Homo sapiens, UniProt P00519); experiment: as §1; settings: at 10 µM
[14] = system: Tyrosine-protein kinase ABL1 (Homo sapiens), P00519 [T315I]; experiment: as §1; settings: at 10 µM
[15] = molecular target: Kappa-type opioid receptor (Homo sapiens, UniProt P41145); experiment: Selectivity interaction (Panel of kinases, GPCRs, ion channels and transporters (enzymatic assay)) EUB0000223bCl OPRK1
Kappa-type opioid receptor, sequence (P41145 whole entry): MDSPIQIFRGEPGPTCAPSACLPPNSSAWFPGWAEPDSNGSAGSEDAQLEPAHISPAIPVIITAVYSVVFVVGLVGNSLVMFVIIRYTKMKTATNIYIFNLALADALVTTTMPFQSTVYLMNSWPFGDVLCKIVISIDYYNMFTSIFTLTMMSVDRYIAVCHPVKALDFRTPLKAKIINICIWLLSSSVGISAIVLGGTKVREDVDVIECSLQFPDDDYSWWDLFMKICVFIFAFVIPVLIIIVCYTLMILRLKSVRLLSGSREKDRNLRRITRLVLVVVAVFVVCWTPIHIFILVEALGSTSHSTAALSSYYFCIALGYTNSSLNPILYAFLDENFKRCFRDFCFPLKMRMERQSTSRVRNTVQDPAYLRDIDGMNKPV

In the case of `Cn1cc(-n2cnc3c(NCc4nc5cc(Cl)c(Cl)cc5[nH]4)nc(N4CCOCC4)nc32)cn1`, the % of control [1] is reported as 4.16%.
Work on `Nc1cnc(N2CCc3cc(S(=O)(=O)Nc4c(F)cc(Cl)cc4F)cc(N4CCCC4=O)c32)nc1` [TP-020n] yielded a % of control [2] of 86%, a % of control [3] of 100% and a % of control [4] of 95%.
Compound `CCC(=O)N1CCN(c2ccc(-n3c(=O)ccc4cnc5ccc(-c6cnc7ccccc7c6)cc5c43)cc2C(F)(F)F)CC1` has a % of control [5] of 25%.
Work on `O[C@H]1CC[C@H](Nc2ncc3nc(Nc4c(F)cc(F)cc4F)n([C@H]4CCOC4)c3n2)CC1` yielded a % of control [6] of 38%, a % of control [7] of 51% and a % of control [8] of 47%. It also gave a % of control [9] of 13%, a % of control [10] of 55% and a % of control [11] of 31%. The % of control [12] was 29%, the % of control [13] was 39% and the % of control [14] was 100%.
With `COc1cc(C(=O)N2CC[C@@H](O)[C@@H](N)C2)cc2nc(-c3cc4ccccc4n3CC3CC3)n(C)c12` the pXC50 [15] was < 4 M.
